Test results published in ChEMBL document CHEMBL2203185, “Development of sub-nanomolar dipeptidic ligands of neuropeptide FF receptors” (Bioorg Med Chem Lett, 2012).

Experiments:
[1] = target: T1, Neuropeptide FF receptor 2 (Homo sapiens, UniProt Q9Y5X5); experiment: Displacement of [3H]FFRF-NH2 from human flag-tagged NPFF2 receptor expressed in CHO cells at 500 nM by scintillation counting; format: cell-based
[2] = target: T2, Neuropeptide FF receptor 1 (Homo sapiens, UniProt Q9GZQ6); experiment: Displacement of [3H]FFRF-NH2 from human flag-tagged NPFF1 receptor expressed in CHO cells at 500 nM by scintillation counting; format: cell-based
T2 sequence (Q9GZQ6 whole entry): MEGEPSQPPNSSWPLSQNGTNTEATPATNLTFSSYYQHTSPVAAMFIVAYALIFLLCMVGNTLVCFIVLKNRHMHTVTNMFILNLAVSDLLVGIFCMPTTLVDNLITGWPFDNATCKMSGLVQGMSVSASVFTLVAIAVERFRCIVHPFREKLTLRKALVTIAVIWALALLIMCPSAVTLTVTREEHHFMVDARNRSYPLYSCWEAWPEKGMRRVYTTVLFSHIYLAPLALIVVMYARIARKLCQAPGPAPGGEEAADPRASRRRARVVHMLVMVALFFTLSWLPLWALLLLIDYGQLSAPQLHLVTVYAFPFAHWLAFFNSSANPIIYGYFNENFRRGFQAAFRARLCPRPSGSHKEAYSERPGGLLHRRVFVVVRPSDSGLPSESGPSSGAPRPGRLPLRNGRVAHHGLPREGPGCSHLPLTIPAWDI

[3] = target: T2, Neuropeptide FF receptor 1; experiment: Displacement of [3H]FFRF-NH2 from human flag-tagged NPFF1 receptor expressed in CHO cells at 5 uM by scintillation counting; format: cell-based
[4] = target: T2, Neuropeptide FF receptor 1; experiment: Displacement of [3H]FFRF-NH2 from human flag-tagged NPFF1 receptor expressed in CHO cells by scintillation counting; format: cell-based
[5] = target: T1, Neuropeptide FF receptor 2; experiment: Displacement of [3H]FFRF-NH2 from human flag-tagged NPFF2 receptor expressed in CHO cells by scintillation counting; format: cell-based
[6] = target: T1, Neuropeptide FF receptor 2; experiment: Displacement of [3H]FFRF-NH2 from human flag-tagged NPFF2 receptor expressed in CHO cells at 5 uM by scintillation counting; format: cell-based
[7] = target: T1, Neuropeptide FF receptor 2; experiment: Ratio of RF2 Ki to compound Ki for human flag-tagged NPFF2 receptor

T1 sequence (Q9Y5X5 whole entry): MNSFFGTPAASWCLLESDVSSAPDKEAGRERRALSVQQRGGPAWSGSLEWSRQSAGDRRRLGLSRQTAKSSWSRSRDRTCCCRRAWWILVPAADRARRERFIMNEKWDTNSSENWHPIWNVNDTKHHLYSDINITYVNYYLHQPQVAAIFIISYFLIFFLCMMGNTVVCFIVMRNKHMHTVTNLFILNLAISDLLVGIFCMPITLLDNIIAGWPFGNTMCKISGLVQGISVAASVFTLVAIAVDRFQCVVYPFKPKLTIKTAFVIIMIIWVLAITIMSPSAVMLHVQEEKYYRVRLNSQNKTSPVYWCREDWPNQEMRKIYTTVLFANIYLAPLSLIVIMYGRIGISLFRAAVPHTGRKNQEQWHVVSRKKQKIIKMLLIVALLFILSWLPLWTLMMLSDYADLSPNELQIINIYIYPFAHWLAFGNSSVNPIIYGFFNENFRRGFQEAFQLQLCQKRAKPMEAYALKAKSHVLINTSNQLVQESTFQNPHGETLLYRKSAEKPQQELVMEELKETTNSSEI

Structure (SMILES): N=C(N)NCCC[C@H](NC(=O)c1ccccc1)C(=O)N[C@@H](Cc1ccccc1)C(N)=O
- inhibition [1]: 32%
- inhibition [2]: 66%
- inhibition [3]: 99%
- Ki [4]: 23 nM
- Ki [5]: 92 nM
- inhibition [6]: 92%

Structure (SMILES): N=C(N)NCCC[C@@H](NC(=O)/C=C/c1ccccc1)C(=O)N[C@@H](Cc1ccccc1)C(N)=O
- inhibition [1]: 18%
- inhibition [2]: 84%
- inhibition [3]: 95%
- Ki [4]: 0.8 nM
- Ki [5]: 117 nM
- inhibition [6]: 58%

Structure (SMILES): N=C(N)NCCC[C@@H](NC(=O)/C=C/c1ccccc1)C(=O)N[C@H](Cc1ccccc1)C(N)=O
- inhibition [1]: 0%
- inhibition [2]: 55%
- inhibition [3]: 82%
- Ki [4]: 84 nM
- Ki [5]: 1620 nM
- inhibition [6]: 14%

Structure (SMILES): NC(=O)[C@H](Cc1ccccc1)NC(=O)[C@H](CCCN=C(N)N)NC(=O)c1cccc2ccccc12
- Ki [4]: 87 nM
- Ki [5]: 141 nM

Structure (SMILES): N=C(N)NCCC[C@@H](NC(=O)c1ccccc1)C(=O)N[C@@H](Cc1ccccc1)C(N)=O
- inhibition [1]: 55%
- inhibition [2]: 80%
- inhibition [3]: 90%
- Ratio Ki [7]: 5
- Ki [4]: 11 nM
- Ki [5]: 22 nM
- inhibition [6]: 92%

Structure (SMILES): NC(=O)[C@H](Cc1ccccc1)NC(=O)[C@@H](CCCN=C(N)N)NC(=O)c1cccc(-c2ccccc2)c1
- Ki [4]: 6 nM
- Ki [5]: 9 nM

Structure (SMILES): N=C(N)NCCC[C@H](NC(=O)C12CC3CC(CC(C3)C1)C2)C(=O)N[C@H](Cc1ccccc1)C(N)=O
- inhibition [1]: 4%
- inhibition [2]: 18%
- inhibition [3]: 79%
- Ki [4]: 114 nM
- Ki [5]: 424 nM
- inhibition [6]: 49%

Structure (SMILES): N=C(N)NCCC[C@H](NC(=O)c1ccc2cc[nH]c2c1)C(=O)N[C@@H](Cc1ccccc1)C(N)=O
- inhibition [1]: 38%
- inhibition [2]: 41%
- inhibition [3]: 89%
- Ki [4]: 378 nM
- Ki [5]: 136 nM
- inhibition [6]: 70%

Structure (SMILES): NC(=O)[C@H](Cc1ccccc1)NC(=O)[C@@H](CCCN=C(N)N)NC(=O)c1ccc(-c2ccccc2)cc1
- Ki [4]: 2 nM
- Ki [5]: 94 nM

Structure (SMILES): COc1cccc(C(=O)N[C@@H](CCCNC(=N)N)C(=O)N[C@@H](Cc2ccccc2)C(N)=O)c1
- inhibition [1]: 5%
- inhibition [2]: 11%
- inhibition [3]: 85%
- Ki [4]: 106 nM
- Ki [5]: 206 nM
- inhibition [6]: 60%

Structure (SMILES): NC(=O)[C@@H](Cc1ccccc1)NC(=O)[C@@H](CCCN=C(N)N)NC(=O)Cc1ccccc1
- Ki [4]: 273 nM
- Ki [5]: 3200 nM

Structure (SMILES): N=C(N)NCCC[C@@H](NC(=O)C(c1ccccc1)c1ccccc1)C(=O)N[C@H](Cc1ccccc1)C(N)=O
- inhibition [1]: 18%
- inhibition [2]: 74%
- inhibition [3]: 86%
- Ki [4]: 15 nM
- Ki [5]: 227 nM
- inhibition [6]: 46%

Structure (SMILES): N=C(N)NCCC[C@@H](NC(=O)C(c1ccccc1)c1ccccc1)C(=O)N[C@@H](Cc1ccccc1)C(N)=O
- inhibition [1]: 84%
- inhibition [2]: 75%
- inhibition [3]: 82%
- Ki [4]: 10 nM
- Ki [5]: 4 nM
- inhibition [6]: 100%

Structure (SMILES): NC(=O)[C@H](Cc1ccccc1)NC(=O)[C@@H](CCCN=C(N)N)NC(=O)Cc1ccccc1
- Ki [4]: 35 nM
- Ki [5]: 425 nM

Structure (SMILES): NC(=O)[C@@H](Cc1ccccc1)NC(=O)[C@@H](CCCN=C(N)N)NC(=O)c1ccccc1-c1ccccc1
- Ki [4]: 5 nM
- Ki [5]: 155 nM

Structure (SMILES): NC(=O)[C@@H](Cc1ccccc1)NC(=O)[C@@H](CCCN=C(N)N)NC(=O)C12CC3CC(CC(C3)C1)C2
- Ki [4]: 51 nM
- Ki [5]: 208 nM

Structure (SMILES): NC(=O)[C@@H](Cc1ccccc1)NC(=O)[C@@H](CCCN=C(N)N)NC(=O)c1cccc(-c2ccccc2)c1
- Ki [4]: 110 nM
- Ki [5]: 672 nM

Structure (SMILES): N=C(N)NCCC[C@@H](NC(=O)c1ccccc1-c1ccccc1)C(=O)N[C@@H](Cc1ccccc1)C(N)=O
- inhibition [1]: 65%
- inhibition [2]: 89%
- inhibition [3]: 97%
- Ki [4]: 2 nM
- Ki [5]: 4 nM
- inhibition [6]: 90%

Structure (SMILES): N=C(N)NCCC[C@@H](NC(=O)C12CC3CC(CC(C3)C1)C2)C(=O)N[C@@H](Cc1ccccc1)C(N)=O
- inhibition [1]: 21%
- inhibition [2]: 85%
- inhibition [3]: 100%
- Ki [4]: 29 nM
- Ki [5]: 142 nM
- inhibition [6]: 60%
